This note sets out measurements from US8691799B2, “Materials and methods for treatment of cancer and identification of anti-cancer compounds” (priority 2001, dated 2014).

Usually IC50 stands for the concentration needed to halve the response being measured.

One series relates to Src. In words: Src kinase autophosphorylation assay on immunoprecipitates. The note with it: immunoprecipitates from A549, MDA-MB-468 or v-Src/NIH 3T3 cells. Format: biochemical. As for the experimental part:
Src Kinase Assay. A549, MDA-MB-468, and v-Src cells were harvested and lysed for 30 min on ice in RIPA150 buffer (10 mM Tris, pH 7.5, 150 mM NaCl, 10% glycerol, 5 mM EDTA, 1% Triton-X-100, 0.1% SDS, 100 μM sodium orthovanadate, 10 μg/ml aprotinin, 10 μg/ml leupeptin, 1 μg/ml antipain). Samples were spun at high speed to clear, then 1000 μg of protein were immunoprecipitated per treatment condition with 2 μg v-Src antibody (Ab-1, Oncogene Research Products, San Diego, Calif.) rocking overnight at 4° C. 25 μl of protein A/G PLUS agarose then was added and rocking continued for 4 hr at 4° C. Samples were spun to collect agarose pellet, and pellet washed three times in RIPA150 buffer, twice in RIPA10 buffer (10 mM Tris, pH 7.5, 10 mM NaCl, 10% glycerol, 5 mM EDTA, 1% Triton-X-100, 0.1% SDS, 100 μM sodium orthovanadate 10 μg/ml aprotinin, 10 μg/ml leupeptin, 1 μg/ml antipain), and three times in 40 mM Tris, pH 7.4. Pellet was then resuspended in 30 μl kinase reaction buffer (20 mM Tris, pH 7.4, 5 mM MgCl2) containing 10 μCi γ-[^32P]ATP. Inhibitors were preincubated for several minutes before the addition of the ATP. Kinase reactions were carried out at room temperature for 15 min. Reaction was stopped with the addition of 2×SDS-PAGE sample buffer. Samples were boiled and run on 10% SDS-PAGE gels. Autophosphorylation results were visualized by autoradiography.

A further series relates to JAK1. Briefly: JAK kinase autophosphorylation assay on immunoprecipitates (JAK1). Format: biochemical. The note with it: immunoprecipitates from MDA-MB-468 or v-Src/NIH 3T3 cells; AG490 100 μM, PD180970 2 μM. As for the experimental part:
(§1) JAK Kinase Assays. A549, MDA-MB-468, and v-Src transformed NIH 3T3 cells were harvested, washed three times in PBS-V (10 mM sodium phosphate, pH 7.4, 137 mM NaCl, 1 mM sodium orthovanadate) then lysed for 30 min on ice in JAK kinase lysis buffer (25 mM Hepes, pH 7.4, 0.1% Triton-X-100, 0.5 mM DTT, 1 mM sodium orthovanadate, 1 mM PMSF, 10 μg/ml aprotinin, 10 μg/ml leupeptin). Samples were spun at high speed to clear, and 800-1000 μg of protein was immunoprecipitated per treatment condition with 50 ng of either JAK1 or JAK2 antibody (Santa Cruz Biotechnology) rocking overnight at 4° C. 25 μl of protein A/G PLUS agarose then was added and rocking continued for 1 hr at 4° C. Samples were spun to collect agarose pellet, and pellet washed twice in wash buffer (50 mM Hepes, pH 7.4, 0.1% Triton-X-100, 0.5 mM DTT, 150 mM NaCl) and once in phosphorylation buffer (50 mM Hepes, pH 7.4, 0.1% Triton-X-100, 0.5 mM DTI, 6.25 mM manganese chloride, 100 mM NaCl). Kinase reactions were performed at 30° C. for 15 min in a final volume of 100 μl of phosphorylation buffer. Samples were pretreated with DMSO control, JSI-124, and control compounds (AG490, 100 μM, and […], 2 μM) before addition of 20 μCi/sample y-[^32P]ATP. Reaction was halted using stop buffer (wash buffer plus 10 mM EDTA), samples spun to collect pellet, then pellet washed once with stop buffer and twice with wash buffer. Samples were then placed in 2×SDS-PAGE sample buffer, boiled at 100° C., and run on 8% SDS-PAGE gels to separate proteins. Autophosphorylation results were visualized by autoradiography.

Another series concerns the target T1, JAK2 (Homo sapiens, UniProt O60674).
T1 construct: Src, JAK1, and JAK2 were immunoprecipitated from either A549, MDA-MB-468, or v-Src/NIH 3T3 cells; endogenous in cells; host or cells: A549, MDA-MB-468, v-Src transformed NIH 3T3 (immunoprecipitates)
Briefly: JAK kinase autophosphorylation assay on immunoprecipitates (JAK2). Format: biochemical. The note with it: immunoprecipitates from A549, MDA-MB-468 or v-Src/NIH 3T3 cells; AG490 100 μM, PD180970 2 μM. As for the experimental part: as §1

The subject of a further series is phosphotyrosine STAT3. In words: Western blotting for phosphotyrosine STAT3 in cancer cell lines. Format: cell-based, human. The note with it: A-549 cells. As for the experimental part:
(§2) Western Blotting. Treated cell samples were lysed in 30 mM Hepes, pH 7.5, 10 mM NaCl, 5 mM MgCl2, 25 mM NaF, 1 mM EGTA, 1% Triton-X-100, 10% glycerol, 2 mM sodium orthovanadate, 10 μg/ml aprotinin, 10 μg/ml soybean trypsin inhibitor, 25 μg/ml leupeptin, 2 mM PMSF, and 6.4 mg/ml p-nitrophenylphosphate. Phospho-STAT3, phospho-AKT, phospho-MEK, and phospho-p42/p44 MAPK antibodies were obtained from Cell Signaling Technologies, Cambridge, Mass. Antibodies to STAT3, JAK2, and phospho-INK were purchased from Santa Cruz Biotechnology, Santa Cruz, Calif. Phospho-JAK2 antibody came from Upstate Biotechnology, Lake Placid, N.Y. Membranes were blocked in either 5% milk in PBS, pH 7.4, containing 0.1% Tween-20 (PBS-T) or 1% BSA in TBS, pH 7.5, containing 0.1% Tween-20 (TBS-T). Phospho-specific antibodies (excepting P-MAPK and P-JNK) were incubated in 1% BSA in TBS-T while all other antibodies were diluted in 5% milk in PBS-T for either 2 hr at room temperature or overnight at 4° C. HRP-conjugated secondary antibodies (Jackson ImmunoResearch) were diluted in 5% milk in either PBS-T or TBS-T at 1:1000 dilution for one hour at room temperature. Western blots were visualized using enhanced chemiluminescence as described previously (Blaskovich, M. A. et al. Nat. Biotechnol., 2000, 18:1065-1070).
Immunoprecipitation of STAT3. A549 cells were treated for 4 hr with vehicle or JSI-124, then lysed in 150 mM Hepes, pH 7.5, 150 mM NaCl, 1 mM EDTA, 0.5% Nonidet P-40 (NP-40), 10% glycerol, 5 mM NaF, 1 mM DTT, 1 mM PMSF, 2 mM sodium orthovanadate, and 5 μg/ml leupeptin. Sample lysates were collected and cleared, then 500 μg of lysate was immunoprecipitated with 50 ng STAT3 antibody overnight at 4° C. then rocked with 25 μl Protein A/G PLUS agarose (Santa Cruz Biotechnology) for 1 hr at 4° C. Samples were washed four times with lysis buffer then boiled in 2×SDS-PAGE sample buffer and run on 10% SDS-PAGE gel. Protein was transferred to nitrocellulose and then blotted as above for both phospho-specific STAT3 and STAT3.

A further series deals with v-Src/NIH 3T3 tumors. Briefly: Antitumor activity, v-Src-transformed NIH 3T3 tumors in nude mice. Format: in vivo. The note with it: 0.2 mpk/day. The text has this: Antitumor Activity in the Nude Mouse Tumor Xenograft Model. Nude mice and C57 BL-6 black mice (National Cancer Institute, Bethesda, Md.) were maintained in accordance with the Institutional Animal Care and Use Committee (IACUC) procedures and guidelines. v-Src- and oncogenic H-Ras-transformed NIH 3T3, A549, MDA-MB-468 and Calu-1 cells were harvested, resuspended in PBS and injected s.c. into the right and left flank (10×10^6 cells per flank) of 8 week old female nude mice as reported previously (Sun, J. et al. Cancer Res., 1999, 59:4919-4926). Similarly, murine B16-F10 Melanoma cells were injected s.c. into the right and left flank (10^6 cells per flank) of C57 black mice. […] […] The tumor volumes were determined by measuring the length (l) and the width (w) and calculating the volume (V=1w^2/2) as described previously (Sun, J. et al. Cancer Res., 1999, 59:4919-4926). Statistical significance between control and treated animals were evaluated by using Student's t-test. For the mouse survival experiments, C57 BL-6 black mice were implanted s.c. with B16-F10 cells (10^5 to 10^6 cells per flank). […] Percent surviving mice was determined by monitoring the death of mice until all mice died. Two experiments of 12 animals each (6 control and 6 treated with JSI-124) were carried out. For statistical analysis: for each of the two experiments, mice receiving JSI-124 were compared to those receiving vehicle control with respect to survival using the permutation log rank test as implemented in the statistical software package, ProcStatXact (p-values are two sided and exact).

A further series has as its system phosphotyrosine JAK2. In words: Western blotting for phosphotyrosine JAK2. Format: cell-based, human. The note with it: A-549 cells, Western blotting; read-out: IC50 for phospho-JAK2. How it is done: as §2
On the technique in general: Immunoblotting shows a protein as a band on a membrane.

Series [1] is described as follows: Tolerability observations in treated mice. Format: in vivo. An excerpt:
Antitumor Activity in the Nude Mouse Tumor Xenograft Model. Nude mice and C57 BL-6 black mice (National Cancer Institute, Bethesda, Md.) were maintained in accordance with the Institutional Animal Care and Use Committee (IACUC) procedures and guidelines. v-Src- and oncogenic H-Ras-transformed NIH 3T3, A549, MDA-MB-468 and Calu-1 cells were harvested, resuspended in PBS and injected s.c. into the right and left flank (10×10^6 cells per flank) of 8 week old female nude mice as reported previously (Sun, J. et al. Cancer Res., 1999, 59:4919-4926). Similarly, murine B16-F10 Melanoma cells were injected s.c. into the right and left flank (10^6 cells per flank) of C57 black mice. When tumors reached about 150 mm^3, animals were randomized (five animals per group; two tumors per animal) and dosed i.p. with 0.2 ml once daily. […] The tumor volumes were determined by measuring the length (l) and the width (w) and calculating the volume (V=1w^2/2) as described previously (Sun, J. et al. Cancer Res., 1999, 59:4919-4926). Statistical significance between control and treated animals were evaluated by using Student's t-test. For the mouse survival experiments, C57 BL-6 black mice were implanted s.c. with B16-F10 cells (10^5 to 10^6 cells per flank). On day 5 after implantation the mice were randomized (6 animals per group) and treated with either vehicle or JSI-124 (1 mg/Kg/day) for 25 days. Percent surviving mice was determined by monitoring the death of mice until all mice died. Two experiments of 12 animals each (6 control and 6 treated with JSI-124) were carried out. For statistical analysis: for each of the two experiments, mice receiving JSI-124 were compared to those receiving vehicle control with respect to survival using the permutation log rank test as implemented in the statistical software package, ProcStatXact (p-values are two sided and exact).

T1 sequence (O60674 whole entry): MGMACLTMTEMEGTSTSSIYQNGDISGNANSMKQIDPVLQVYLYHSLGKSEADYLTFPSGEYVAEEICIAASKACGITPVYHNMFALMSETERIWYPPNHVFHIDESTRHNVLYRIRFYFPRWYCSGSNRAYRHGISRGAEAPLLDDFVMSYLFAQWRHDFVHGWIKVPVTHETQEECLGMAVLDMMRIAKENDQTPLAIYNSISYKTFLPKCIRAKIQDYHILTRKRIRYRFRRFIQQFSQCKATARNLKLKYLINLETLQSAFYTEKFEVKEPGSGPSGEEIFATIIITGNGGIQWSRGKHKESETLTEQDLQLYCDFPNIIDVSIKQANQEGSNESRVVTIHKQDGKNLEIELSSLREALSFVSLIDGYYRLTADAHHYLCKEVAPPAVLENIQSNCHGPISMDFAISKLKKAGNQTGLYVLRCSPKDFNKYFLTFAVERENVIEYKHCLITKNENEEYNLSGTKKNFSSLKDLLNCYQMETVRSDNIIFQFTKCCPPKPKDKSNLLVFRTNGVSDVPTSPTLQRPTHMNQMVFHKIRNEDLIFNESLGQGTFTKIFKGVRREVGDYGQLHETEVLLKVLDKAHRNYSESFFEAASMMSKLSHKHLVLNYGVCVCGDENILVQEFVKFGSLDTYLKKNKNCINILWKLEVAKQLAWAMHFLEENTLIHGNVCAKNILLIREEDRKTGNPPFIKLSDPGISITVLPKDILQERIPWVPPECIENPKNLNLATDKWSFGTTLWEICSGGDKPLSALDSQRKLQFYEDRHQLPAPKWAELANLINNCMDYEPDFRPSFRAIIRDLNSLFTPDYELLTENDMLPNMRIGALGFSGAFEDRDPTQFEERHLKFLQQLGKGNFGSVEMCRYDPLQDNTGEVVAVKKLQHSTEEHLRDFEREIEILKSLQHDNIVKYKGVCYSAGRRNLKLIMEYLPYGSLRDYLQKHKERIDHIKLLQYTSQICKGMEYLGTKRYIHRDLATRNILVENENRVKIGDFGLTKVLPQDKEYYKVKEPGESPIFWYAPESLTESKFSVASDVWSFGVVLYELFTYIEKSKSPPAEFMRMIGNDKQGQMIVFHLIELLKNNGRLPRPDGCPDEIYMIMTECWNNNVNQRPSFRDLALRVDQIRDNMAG

As for `Cc1cc(Nc2ncc3cc(-c4c(Cl)cccc4Cl)c(=O)n(C)c3n2)ccc1F` [PD180970], the “Src kinase activity (autophosphorylation) in vitro” value with Src was “inhibits Src”. In addition, the “JAK1 kinase activity (autophosphorylation) in vitro” value in the series with JAK1 is “not JAK1 or JAK2 activities”. Further, at JAK2, the “JAK2 kinase activity (autophosphorylation) in vitro” value was “not JAK1 or JAK2 activities”.
In the case of `N#C/C(=C/c1ccc(O)c(O)c1)C(=O)NCc1ccccc1` [AG490], in the series with Src, the “Src kinase activity (autophosphorylation) in vitro” value is given as “not Src kinase activities”. Further, the “JAK1 kinase activity (autophosphorylation) in vitro” value in the series with JAK1 was “inhibited JAK1 and JAK2”. In addition, the “JAK2 kinase activity (autophosphorylation) in vitro” value on JAK2 is “inhibited JAK1 and JAK2”.
`CC(=O)OC(C)(C)/C=C/C(=O)[C@](C)(O)[C@H]1[C@H](O)C[C@@]2(C)[C@@H]3CC=C4[C@H](C[C@H](O)C(=O)C4(C)C)[C@]3(C)C(=O)C[C@]12C` [cucurbitacin B]: the “additional loss of inhibitory activity against phosphotyrosine-STAT3 versus cucurbitacin E” value in the series on phosphotyrosine STAT3 is listed as “five-fold”. Besides, the IC50 came to 4000 nM with phosphotyrosine STAT3 (Western blotting, read-out: IC50 for phospho-STAT3) and 200 nM in the series on phosphotyrosine JAK2. Also, in the series on v-Src/NIH 3T3 tumors, the “inhibition of growth of v-Src/NIH 3T3 tumors, 0.2 mpk/day” value is given as 40%. Besides, the “toxicity in tumor-bearing nude mice at 1 mpk” value in series [1] (1 mg/kg/day i.p.) is recorded as “toxic”. Further, the “toxicity in tumor-bearing nude mice at 0.2 mpk/day” value in series [1] (0.2 mpk/day (200 μg/kg/day)) is on record as “not toxic”.
